Each structure is given as a SMILES string.

The values that follow come from a melting point compilation (Tetko et al.; mined from patent text by program, amines drawn as free bases though some values may be those of a salt).

By melting point is commonly meant the temperature, or range, at which the solid turns liquid.

Compound `O=C(NC1CCN(Cc2ccccc2)CC1)c1ccc(Nc2c(C(=O)NC3CCN(Cc4ccccc4)CC3)cnc3cc(Cl)ccc23)cc1` displayed a melting point of 230 to 232 °C.
The figure for `CC(=O)c1ccc(S(=O)(=O)Nc2cc(C)on2)cc1` is 189 to 190 °C; for `FC(F)(F)c1cc(C2CCCO2)c2cccc(C(F)(F)F)c2n1` (stereo unspecified) it is 61 to 61.7 °C; for `CCCOc1cc(CCCO)n(Cc2ccc(F)cc2F)n1` it is 66 to 67 °C.
As for `COc1cc2c(c3c1OC(C)(C)C3)C(c1ccc(=O)n(-c3cccc(-c4ccccn4)n3)c1)=NC(C)(C)C2`, the figure is 231 to 234 °C; as for `CCOC(=O)Cc1ccc(NCc2cc(Br)ccc2OCc2ccccc2)cc1`, 73 °C.
The figure for `CC(=O)Oc1ccc(N2CCC(=O)c3ccccc32)cc1` is 130 to 132 °C; for `CC(C)(C)OC(=O)C(F)=CC1C(C(=O)O)C1(C)C` (stereo unspecified) it is 90 °C.
For `S=c1[nH]cnc2c(Br)csc12`, the melting point was determined as 328 °C.
The figure for `COc1ccc(-c2cc(-c3ccc(F)cc3)ccc2C(=O)N2CCOCC2)cc1OC` is 153 °C; for `COc1cc(OC)nc(O[C@@H]2CCCC[C@H]2C(=O)NS(=O)(=O)c2ccccc2)n1` (relative stereo) it is 175 °C.
The figure for `CCOc1c(C)cccc1-c1nc2ccc(C(=O)O)cc2c(=O)[nH]1` is 240 to 241 °C; for `CCOC(=O)Cc1nc(-c2ccc(Cl)c(Cl)c2)oc1-c1ccoc1` it is 130 to 131 °C; for `COc1cc(NC(NC(C)C(C)(C)C)=C(C#N)S(=O)(=O)c2ccc(Cl)cc2)cc(OC)c1` (stereo unspecified) it is 178 to 179 °C.
As for `CCN1CCC(O)(c2ccc(F)c(Cl)c2)C1` (stereo unspecified), the figure is 157 to 158 °C; as for `COc1cc(OC)nc(N(C)C(=O)NS(=O)(=O)c2ccccc2OC(F)(F)F)n1`, 162 °C.
Take `O=C(NCc1ccc(F)cc1)c1cccnc1Oc1ccc(F)cc1`: the melting point fell in the range of 136 to 138 °C.
As to `O=C1CCC(Cc2ccccc2)CC1`, the melting point is 40 to 44 °C.
As for `CC(C)c1cc(C(O)(C(F)(F)F)C(F)(F)F)cc(C(C)C)c1NCC(=O)O`, the figure is 130 to 132 °C; as for `O=c1[nH]c2cc(-n3cnc4c3CCCC4)c([N+](=O)[O-])cc2[nH]c1=O`, greater than 300 °C.
The figure for `CCOC(=O)CCc1ccc2c(c1)CC(CNC(=O)OC(C)(C)C)CC2` (stereo unspecified) is 69 to 71 °C; for `CN(C)CCc1cn(Cc2ccccc2)c2ccc(Br)cc12` it is 49 to 50 °C; for `Cc1nc(CCCCn2cnc3c2c(=O)n(C)c(=O)n3C)no1` it is 131 to 132 °C.
The figure for `CCCCC(=O)NCCc1ccc(S(=O)(=O)NC(=O)c2ccc(C(=O)OC)nc2)cc1` is 178 to 180 °C.
In turn, `COCOc1ccccc1COc1cc2c(cc1-c1cc(C=CC(=O)O)ccc1OC)C(C)(C)CCC2(C)C` had a melting point of 159 to 161 °C.
The figure for `COc1cc2[nH]c(C(=O)O)cc(=O)c2c2cccnc12` is 286 to 288 °C; for `Cc1nnc(C2CN3CCC2CC3)o1` (stereo unspecified) it is 147 to 148 °C.
The figure for `C=CCOc1ccc(C(=O)Oc2ccc(O)cc2)cc1` is 146 °C; for `COc1ccc(/C(=C\C=C\C(=O)O)c2cccnc2)cc1` it is 235 to 238 °C; for `Cc1cc(C(O)CS(C)(=O)=O)cc(C)c1N(C)C` (stereo unspecified) it is 133 to 134 °C.
As for `NCC(CC(=O)O)CC1CC1` (stereo unspecified), the figure is 172 to 173 °C.
The compound `O=Cc1cc(Cl)c(O)c(O)c1Cl` yielded a melting point of 176 to 178 °C.
`Cc1ccc(C(=O)Nc2ccccc2C(=O)NCCc2ncc[nH]2)cc1`: the melting point was 209 to 214 °C.
`CN1C(=O)C(c2cccc(-c3ccccc3)c2)(C2CCN(C(=O)c3cccs3)CC2)N=C1N` (stereo unspecified) returned a melting point of 135 to 137 °C.
The compound `Clc1cccc(CC[C@H]2CN(Cc3ccccc3)CCN2Cc2ccccc2)c1` came in with a melting point of 56 to 60 °C.
The figure for `COc1cc(Br)c(OC)c2c1C=C([N+](=O)[O-])CC2` is 121 to 123 °C.
